Assay results: patent US20170119660A1, “PHARMACEUTICAL COMPOSITIONS FOR TRANSMUCOSAL DELIVERY” (Solubest Ltd, priority 2015, published 2017)

How the values were obtained:
[1] = Dissolution test of cannabidiol compositions in FaSSIF; format: physicochemical; parameters: unit not given here; conditions: 200 ml FaSSIF, drug loading 20 mg
Protocol: (§1) The liquid intermediates, containing the active compound(s) and the polymers, were prepared using different size glassware, magnetic plates, peristaltic pump and tubing. The spray-drying process was conducted using Mini Spray Dryer B-290 of Buchi Labortechnik AG. Tablet compression was performed with a Mini 8-D tablet press Dynamic Exim Co. Ltd. Granules preparation was performed with Dynamic Exim dry granulator. The dissolution test was performed in accordance with USP Dissolution Method <711> and FDA Dissolution Methods for Drug Products using the paddle apparatus Pharma Test model DT70 equipped with 1L and 250 ml vessels. The quantification was performed using HPLC, Dionex. Appropriate amount of prepared granules or tablets as well as control powders or tablets were dissolved in 250 ml of artificial saliva, at 37° C., with rotation speed of 75 rpm. Simulated saliva solution was prepared according to SS5 solution recipe reported in Marques et al, 2011, Dissolution Technologies, 18, 15-28. The tablets disintegration test was performed in accordance with USP Disintegration Method <701>.
Unformulated cannabidiol (CBD) and composition of the present invention (Example 13) were subjected to a dissolution test in 200 ml of Fasted State Simulating Intestinal Fluid (FaSSIF). The drug loading was 20 mg.

[2] = Dissolution test of powders and granules in simulated saliva; format: physicochemical; conditions: drug loading 10 mg/ml
Protocol: as §1, with “The dissolution test was performed in accordance with USP Dissolution Method <711> and FDA Dissolution Methods for Drug Products using the paddle apparatus Pharma Test model DT70 equipped with 1L and 250 ml vessels.” left out, “<701>. […] The drug loading in the first set of experiments was 2.5 mg/ml.” for “<701>.”

[3] = tested on: EpiOral™ buccal tissues; experiment: Franz diffusion cell permeability through human buccal tissue; format: in vitro ADME; conditions: 7.5 mg/ml in artificial saliva
Protocol: Permeability studies were performed as follows. The barrier membranes, EpiOral™ representing a highly differentiated, three-dimensional, cultured human buccal tissue equivalent were obtained from MatTek Corp (Ashland, Mass.). Samples were mounted in vertical Franz diffusion cells (PermeGear Inc., Bethlehem, Pa.). […] The fluid in each receptor compartment was maintained at 37±0.5° C. by using a thermostatic water pump (Freed Electric, Haifa, Israel) that circulated water through the jacket surrounding each main chamber. The biological membranes were initially left in the Franz cells for 1 h in order to facilitate their hydration before the experiment. After this period, a 500-μL aliquot of 7.5 mg/ml sumatriptan solution/dispersion in artificial saliva was deposited in each donor compartment. The donor compartment was covered with Parafilm® to prevent evaporation. Receptor solution samples of 300 μL were then collected at 3, 6, 9, 12, 20, 40 and 60 minutes and replaced with 300 μL phosphate buffer, placed on ice and stored at −20° C. until subjected to HPLC or LCMS analysis. Each permeation experiment was conducted as four replicate runs.
The permeability of unformulated sumatriptan base, of API (in the base form) released from the composition of the present invention (Example 3) and of the commercial formulation Imitrex® was tested using EpiOral™ buccal tissues as described in the Methods section. EpiOral™ buccal tissues consist of normal, human-derived epithelial cells that have been cultured to form multilayered, highly differentiated models of the human buccal phenotypes.

Row | SMILES | Dissolution profile ([1]; Time 0) | Dissolution profile ([1]; Time 10) | Dissolution profile ([1]; Time 20) | Dissolution profile ([1]; Time 30) | Dissolution profile ([1]; Time 45) | Dissolution profile ([1]; Time 60) | Dissolution profile ([1]; Time 90) | Drug released ([2]; 5 min) [%] | Drug released ([2]; 10 min) [%] | Drug released ([2]; 20 min) [%] | STP Permeability ([3]; time point 0 min) [μg/cm^2] | STP Permeability ([3]; time point 3 min) [μg/cm^2] | STP Permeability ([3]; time point 6 min) [μg/cm^2] | STP Permeability ([3]; time point 9 min) [μg/cm^2] | STP Permeability ([3]; time point 12 min) [μg/cm^2] | STP Permeability ([3]; time point 20 min) [μg/cm^2] | STP Permeability ([3]; time point 40 min) [μg/cm^2] | STP Permeability ([3]; time point 60 min) [μg/cm^2]
1 | C=C(C)[C@@H]1CCC(C)=C[C@H]1c1c(O)cc(CCCCC)cc1O [Unformulated CBD, Cannabidiol] | 0 | 1.7 | 2.7 | 3.8 | 5.2 | 6.3 | 8.2 |  |  |  |  |  |  |  |  |  |  | 
2 | CNS(=O)(=O)Cc1ccc2[nH]cc(CCN(C)C)c2c1 [Unformulated sumatriptan, Sumatriptan base] |  |  |  |  |  |  |  | 13 | 13 | 13 | 0.000 | 0.330 | 0.736 | 0.964 | 1.295 | 2.671 | 6.938 | 14.887
